{"source": "paper PMC4792161", "about": "“A novel pyrazole derivative protects from ovariectomy-induced osteoporosis through the inhibition of NADPH oxidase” (Scientific Reports, 2016)", "key": {"xanthine oxidase": {"biological_target": "xanthine oxidase (Bos taurus, UniProt P80457)", "sequence (P80457 2-1332)": "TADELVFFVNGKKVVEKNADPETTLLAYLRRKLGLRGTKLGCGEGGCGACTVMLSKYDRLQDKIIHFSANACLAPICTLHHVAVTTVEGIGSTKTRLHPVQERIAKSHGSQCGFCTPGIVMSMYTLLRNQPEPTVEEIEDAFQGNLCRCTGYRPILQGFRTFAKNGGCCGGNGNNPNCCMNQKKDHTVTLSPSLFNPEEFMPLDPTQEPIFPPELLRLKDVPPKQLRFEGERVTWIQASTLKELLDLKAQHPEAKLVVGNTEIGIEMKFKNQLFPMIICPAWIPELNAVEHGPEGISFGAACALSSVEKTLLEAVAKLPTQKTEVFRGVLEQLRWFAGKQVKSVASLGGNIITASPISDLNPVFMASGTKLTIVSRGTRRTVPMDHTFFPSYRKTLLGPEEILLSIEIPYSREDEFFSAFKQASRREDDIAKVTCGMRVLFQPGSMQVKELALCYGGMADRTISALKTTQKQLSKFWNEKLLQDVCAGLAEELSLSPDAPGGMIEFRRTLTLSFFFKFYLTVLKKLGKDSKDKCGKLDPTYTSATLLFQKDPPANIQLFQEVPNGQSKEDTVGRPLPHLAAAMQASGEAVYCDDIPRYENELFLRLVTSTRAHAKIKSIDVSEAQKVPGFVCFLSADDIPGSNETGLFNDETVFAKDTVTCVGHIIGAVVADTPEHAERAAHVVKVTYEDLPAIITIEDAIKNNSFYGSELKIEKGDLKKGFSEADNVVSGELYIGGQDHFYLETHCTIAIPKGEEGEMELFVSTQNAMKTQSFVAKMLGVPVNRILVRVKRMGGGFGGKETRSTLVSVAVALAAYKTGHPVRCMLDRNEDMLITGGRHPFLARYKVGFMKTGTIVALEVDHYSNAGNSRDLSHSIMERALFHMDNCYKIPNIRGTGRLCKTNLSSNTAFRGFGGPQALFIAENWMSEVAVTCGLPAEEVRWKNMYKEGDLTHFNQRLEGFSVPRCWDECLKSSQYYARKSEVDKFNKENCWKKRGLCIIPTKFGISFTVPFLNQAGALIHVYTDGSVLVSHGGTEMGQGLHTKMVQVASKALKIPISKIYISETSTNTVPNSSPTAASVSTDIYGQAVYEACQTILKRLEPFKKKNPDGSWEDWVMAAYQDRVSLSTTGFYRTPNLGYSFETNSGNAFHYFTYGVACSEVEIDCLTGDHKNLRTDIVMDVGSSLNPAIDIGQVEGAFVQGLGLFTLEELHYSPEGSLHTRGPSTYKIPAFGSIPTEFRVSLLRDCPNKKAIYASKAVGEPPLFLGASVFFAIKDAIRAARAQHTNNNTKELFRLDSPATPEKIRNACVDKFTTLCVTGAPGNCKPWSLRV", "test": "Xanthine oxidase assay (lucigenin)", "type": "biochemical", "description": "Xanthine oxidase activity was measured by lucigenin. Reaction mixtures contained 0.1 mU xanthine oxidase, 0.25 mM Xanthine, and 0.4 mM lucigenin with the indicated inhibitor (0–20 μM). Luminescence measured over 30 min at 37 °C with luminometor (DTX800, Beckman coulter)."}, "human Nox4": {"biological_target": "T1, human Nox4 (Homo sapiens, UniProt Q9NPH5)", "T1 construct": "made in house; host or cells: transgenic Drosophila (Duox knockdown, Da-GAL4 driven UAS-hNOX4); membrane-enriched fly homogenate", "T1 sequence (Q9NPH5 1-578)": "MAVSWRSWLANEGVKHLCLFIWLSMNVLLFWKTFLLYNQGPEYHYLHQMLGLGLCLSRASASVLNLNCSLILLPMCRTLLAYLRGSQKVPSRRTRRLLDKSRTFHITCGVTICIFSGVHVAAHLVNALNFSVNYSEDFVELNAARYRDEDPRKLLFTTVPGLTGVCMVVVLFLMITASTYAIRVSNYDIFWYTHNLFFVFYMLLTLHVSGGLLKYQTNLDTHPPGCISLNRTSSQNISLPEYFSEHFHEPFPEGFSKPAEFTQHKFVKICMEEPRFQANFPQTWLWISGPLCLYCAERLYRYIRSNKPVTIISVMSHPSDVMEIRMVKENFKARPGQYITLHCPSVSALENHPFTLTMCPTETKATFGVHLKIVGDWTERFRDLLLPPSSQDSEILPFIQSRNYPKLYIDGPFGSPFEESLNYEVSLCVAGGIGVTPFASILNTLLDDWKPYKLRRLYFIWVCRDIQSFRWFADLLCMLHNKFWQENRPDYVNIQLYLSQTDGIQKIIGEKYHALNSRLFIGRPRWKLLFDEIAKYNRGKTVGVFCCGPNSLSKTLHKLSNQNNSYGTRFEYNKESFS", "test": "Nox inhibitor screening, Drosophila membranes over-expressing human Nox4, ROS chemiluminescence", "type": "biochemical", "conditions": "hNox4 Drosophila membranes", "quoted_text": "(§1) Purified Drosophila membranes expressing human Nox1, Nox2, or Nox4 were used to monitor ROS production by determining the oxidation of lucigenin, evident as chemiluminescence, in the absence or presence of chemical compound[18].\n(§2) Drosophila membranes specifically overexpressing hNox1, hNox2, and hNox4 were subjected into ROS measurement with Diogene.\n(§3) The genotypes used were human Nox1 (UAS-hNOX1/UAS-DUOX-RNAi; Da-GAL4/+), Nox2 (UAS-hNOX2/UAS-DUOX-RNAi; Da-GAL4/+) and Nox4 (UAS-hNOX4/UAS-DUOX-RNAi; Da-GAL4/+). Transgenic flies were homogenated with ice-cold PBS containing protease inhibitors and membrane-enriched human Nox1, 2, or 4 were harvested. Membranes containing human Nox1, 2, or 4 served to monitor ROS production by lucigenin chemiluminescence in the absence or presence of chemical compound[18]."}, "glucose oxidase": {"biological_target": "glucose oxidase (Aspergillus niger, UniProt P13006)", "sequence (P13006 17-605, species assumed)": "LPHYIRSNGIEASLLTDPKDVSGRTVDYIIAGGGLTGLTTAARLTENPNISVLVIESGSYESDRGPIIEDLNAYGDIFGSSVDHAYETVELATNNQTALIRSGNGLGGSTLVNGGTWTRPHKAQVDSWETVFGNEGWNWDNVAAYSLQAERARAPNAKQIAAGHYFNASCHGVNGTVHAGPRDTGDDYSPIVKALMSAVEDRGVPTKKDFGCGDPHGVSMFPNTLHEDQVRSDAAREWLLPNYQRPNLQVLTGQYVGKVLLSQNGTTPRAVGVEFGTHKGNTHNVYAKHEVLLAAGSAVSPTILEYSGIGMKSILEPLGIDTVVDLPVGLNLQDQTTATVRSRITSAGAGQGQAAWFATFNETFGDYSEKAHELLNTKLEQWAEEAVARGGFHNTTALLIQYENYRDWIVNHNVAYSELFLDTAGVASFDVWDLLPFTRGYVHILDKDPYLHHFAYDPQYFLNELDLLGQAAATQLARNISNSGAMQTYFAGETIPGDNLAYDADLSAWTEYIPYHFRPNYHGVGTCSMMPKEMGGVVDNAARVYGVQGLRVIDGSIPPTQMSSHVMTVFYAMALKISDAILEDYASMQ", "test": "Glucose oxidase assay (lucigenin)", "type": "biochemical", "description": "Glucose oxidase activity was measured by lucigenin. Reaction mixtures contained 0.75 mM glucose, 0.25 mg/ml glucose oxidase, and 0.4 mM lucigenin with the indicated inhibitor (0–20μM). Luminescence was measured over 30 min at 37 °C with luminometor (DTX800, Beckman coulter)."}, "[1]": {"test": "Pharmacokinetics after IV and oral administration to rats", "type": "in vivo", "description": "Supplementary Table S1. Pharmacokinetic parameters of Ewha-89403 following IV and oral administration at the doses of 1 mg/kg and 10 mg/kg, respectively, to rats (n=4-5) PK Parameters IV Injection Oral Administration\nAbsolute Bioavailability (BA) = 4.3 %\nSupplementary Table S2. Pharmacokinetic parameters of Ewha-18278 following IV and oral administration at the doses of 2 mg/kg and 20 mg/kg, respectively, to rats (n=5-6) […]\nAbsolute Bioavailability (BA) = 63.8 %"}, "human Nox1": {"biological_target": "T2, human Nox1 (Homo sapiens, UniProt Q9Y5S8)", "T2 construct": "made in house; host or cells: transgenic Drosophila (Duox knockdown, Da-GAL4 driven UAS-hNOX1); membrane-enriched fly homogenate", "T2 sequence (Q9Y5S8 1-564)": "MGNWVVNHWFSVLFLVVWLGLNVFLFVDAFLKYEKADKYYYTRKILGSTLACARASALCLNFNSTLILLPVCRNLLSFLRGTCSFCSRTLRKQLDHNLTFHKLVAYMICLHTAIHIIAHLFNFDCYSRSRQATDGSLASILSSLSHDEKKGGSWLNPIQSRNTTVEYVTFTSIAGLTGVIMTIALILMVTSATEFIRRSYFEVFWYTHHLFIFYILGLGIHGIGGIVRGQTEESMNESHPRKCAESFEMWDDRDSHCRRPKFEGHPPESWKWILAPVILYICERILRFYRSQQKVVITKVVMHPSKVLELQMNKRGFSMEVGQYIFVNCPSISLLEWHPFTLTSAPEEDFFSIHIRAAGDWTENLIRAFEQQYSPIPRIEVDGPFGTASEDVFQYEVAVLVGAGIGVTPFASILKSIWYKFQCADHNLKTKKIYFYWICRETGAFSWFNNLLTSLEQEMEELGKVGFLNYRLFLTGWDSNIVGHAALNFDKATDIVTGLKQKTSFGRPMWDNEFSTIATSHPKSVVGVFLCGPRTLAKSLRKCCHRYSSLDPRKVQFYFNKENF", "test": "Nox inhibitor screening, Drosophila membranes over-expressing human Nox1, ROS chemiluminescence", "type": "biochemical", "conditions": "hNox1 Drosophila membranes", "quoted_text": "as §1, §2, §3"}, "human Nox2": {"biological_target": "T3, human Nox2 (Homo sapiens, UniProt P04839)", "T3 construct": "made in house; host or cells: transgenic Drosophila (Duox knockdown, Da-GAL4 driven UAS-hNOX2); membrane-enriched fly homogenate", "T3 sequence (P04839 2-570 limits assumed)": "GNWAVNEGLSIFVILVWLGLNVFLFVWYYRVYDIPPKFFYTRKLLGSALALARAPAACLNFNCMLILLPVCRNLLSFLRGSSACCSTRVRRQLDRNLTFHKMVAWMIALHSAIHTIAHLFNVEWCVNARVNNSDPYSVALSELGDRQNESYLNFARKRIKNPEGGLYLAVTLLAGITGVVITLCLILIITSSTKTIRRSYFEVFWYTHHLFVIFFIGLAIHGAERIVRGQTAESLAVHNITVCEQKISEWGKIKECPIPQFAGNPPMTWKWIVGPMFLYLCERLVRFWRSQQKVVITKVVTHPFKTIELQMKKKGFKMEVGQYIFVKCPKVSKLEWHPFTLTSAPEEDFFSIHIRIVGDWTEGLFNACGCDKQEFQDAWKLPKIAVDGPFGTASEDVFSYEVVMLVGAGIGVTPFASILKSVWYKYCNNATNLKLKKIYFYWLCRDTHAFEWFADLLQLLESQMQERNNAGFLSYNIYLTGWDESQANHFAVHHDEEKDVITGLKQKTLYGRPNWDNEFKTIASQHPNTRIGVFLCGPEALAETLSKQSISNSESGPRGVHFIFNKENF", "test": "Nox inhibitor screening, Drosophila membranes over-expressing human Nox2, ROS chemiluminescence", "type": "biochemical", "conditions": "hNox2 Drosophila membranes", "quoted_text": "as §1, §2, §3"}}}
{"smiles": "Oc1cc(-c2ccccc2)nn1-c1ccccn1", "note": "[Ewha-89403, 3-phenyl-1-(pyridin-2-yl)-1H-5-hydroxypyrazole]", "values": [{"measurement": "inhibitory activity on xanthine oxidase", "setting": "xanthine oxidase", "result": "no inhibitory activities"}, {"measurement": "Ki", "setting": "human Nox4", "result": 3120, "unit": "nM"}, {"measurement": "inhibitory activity on glucose oxidase", "setting": "glucose oxidase", "result": "no inhibitory activities"}, {"measurement": "Clt", "setting": "[1]; IV 1 mg/kg", "result": "1277 ± 162.1", "unit": "mL/h"}, {"measurement": "AUC(0-inf)", "setting": "[1]; rat, in vivo, IV 1 mg/kg", "result": "418 ± 56", "unit": "ng·h/mL"}, {"measurement": "AUC(0-t)", "setting": "[1]; rat, in vivo, IV 1 mg/kg", "result": "343 ± 45", "unit": "ng·h/mL"}, {"measurement": "C0", "setting": "[1]; rat, in vivo, IV 1 mg/kg", "result": "2520 ± 837", "unit": "ng/mL"}, {"measurement": "Vd", "setting": "[1]; rat, in vivo, IV 1 mg/kg", "result": "2.64 ± 1.41", "unit": "L"}, {"measurement": "half-life", "setting": "[1]; rat, in vivo, IV 1 mg/kg", "result": "1.43 ± 0.723", "unit": "h"}, {"measurement": "bioavailability", "setting": "[1]; rat, in vivo, IV 1 mg/kg and oral 10 mg/kg, read-out: Absolute Bioavailability (BA)", "result": 4.3, "unit": "%"}, {"measurement": "AUC(0-inf)", "setting": "[1]; rat, in vivo, oral 10 mg/kg", "result": "302 ± 133", "unit": "ng·h/mL"}, {"measurement": "AUC(0-t)", "setting": "[1]; rat, in vivo, oral 10 mg/kg", "result": "149 ± 39", "unit": "ng·h/mL"}, {"measurement": "Cmax", "setting": "[1]; rat, in vivo, oral 10 mg/kg", "result": "194 ± 54", "unit": "ng/mL"}, {"measurement": "Tmax", "setting": "[1]; rat, in vivo, oral 10 mg/kg", "result": "6.12 ± 2.34", "unit": "min"}, {"measurement": "half-life", "setting": "[1]; rat, in vivo, oral 10 mg/kg", "result": "3.3 ± 2.08", "unit": "h"}, {"measurement": "Ki", "setting": "human Nox1", "result": 1450, "unit": "nM"}, {"measurement": "Ki", "setting": "human Nox2", "result": 2570, "unit": "nM"}]}
